Data from patent US20100041891A1, “AMIDE COMPOUND” (Takeda Pharmaceutical Company Limited, priority 2008, published 2010).

Assays:
human GPR52 = biological target: T1, human GPR52 (Homo sapiens, UniProt Q9Y2T5); experiment: Increased intracellular cAMP levels in human GPR52 expression CHO cells; format: cell-based; conditions: 1 μM test compound, 30 min at 37° C., human GPR52 expression CHO (dhfr-) cells; 100% = cAMP level with 1 μM Reference Example 136, 0% = DMSO
T1 construct: expressed in transfected cells; host or cells: CHO (dhfr-) cells
T1 sequence (Q9Y2T5 whole entry): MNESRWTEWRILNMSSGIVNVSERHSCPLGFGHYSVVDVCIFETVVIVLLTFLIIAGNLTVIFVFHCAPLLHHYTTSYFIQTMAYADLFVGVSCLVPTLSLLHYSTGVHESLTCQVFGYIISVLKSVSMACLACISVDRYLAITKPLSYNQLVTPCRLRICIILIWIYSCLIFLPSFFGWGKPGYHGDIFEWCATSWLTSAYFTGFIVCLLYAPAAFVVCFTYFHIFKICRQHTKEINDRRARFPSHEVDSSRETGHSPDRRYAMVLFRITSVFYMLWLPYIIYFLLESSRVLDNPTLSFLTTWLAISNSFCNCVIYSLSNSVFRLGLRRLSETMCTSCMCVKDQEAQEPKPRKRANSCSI
Procedure: Increased intracellular cAMP levels in human GPR52 expression CHO cells 1×10^4 human GPR52 expression CHO (dhfr-) cells were incubated with 1 μM test compound for 30 min at 37° C. in 30 μL assay buffer (HBSS (containing Ca^2+ and Mg^2+), 0.5% BSA, 100 μM IBMX, 100 μM Ro 20-1724, 5 mM HEPES (pH 7.55)) using an OptiPlate-384 (by PerkinElmer). The intracellular cAMP level was then assayed with an EnVision (by PerkinElmer) according to the protocol of the AlphaScreen cAMP Assay Kit (by PerkinElmer). The GPR52 agonist activity was calculated, assuming the intracellular cAMP level in the presence of 1 μM of 3-(6-(2-(3,4-dimethoxyphenyl)ethoxy)pyridine-2-yl)-N-(2-pyrrolidin-1-ylethyl)benzamide (Reference Example 136) to be 100% and assuming the intracellular cAMP level when DMSO was added instead of test compound to be 0%.

[1] = tested on: methamphetamine-induced locomotor hyperactivity in mice; experiment: Inhibition of methamphetamine-induced locomotor hyperactivity; format: in vivo; conditions: male ICR mice, test compound 30 mg/kg orally, 60 min later methamphetamine 2 mg/kg subcutaneous, locomotor activity 90 min after methamphetamine, versus vehicle group
Procedure: Compounds of the present invention can be evaluated by assessing the inhibition of methamphetamine-induced locomotor hyperactivity in mice. The method of Okuyama et al was modified to test the inhibition of methamphetamine-induced locomotor hyperactivity (Life Science, Vol. 65, pages 2109-2125 (1999)).
Locomotor activity was measured using a 32-channel locomotor activity measurement device MDC-LT (by BrainScience Idea Co., Ltd.), which emits infrared beams from the top of a cage (30×40×20 cm). 6- to 8-week old male ICR mice were acclimated for at least 45 min in the measurement cages, and then either test compound (30 mg/kg) dissolved in vehicle (0.5% methylcellulose aqueous solution) or the vehicle alone were orally administered. This oral administration was followed 60 min later by subcutaneous administration of methamphetamine (2 mg/kg).
90 min after administration of methamphetamine, the number of times the laboratory animals passed through the infrared beams emitted inside the measurement cages was measured to quantify locomotor activity. The following equation was used to calculate the rate at which methamphetamine-induced locomotor hyperactivity was inhibited (activity inhibition rate (%)).
Activity inhibition rate (%)={1−(locomotor activity after treatment with methamphetamine in test compound treatment group÷locomotor activity after treatment with methamphetamine in vehicle treatment group)}×100

SMILES | melting point | GPR52 agonist activity (%) (human GPR52) | Activity Inhibition Rate (%) [1]
O=C(O)CNC(=O)c1cccc(-c2cccc3oc(Cc4cccc(C(F)(F)F)c4)cc23)c1 [Working Example 303, N-[(3-[2-[3-(Trifluoromethyl)benzyl]-1-benzofuran-4-yl]phenyl)carbonyl]glycine] | 89 to 94 °C | – | –
COCCNC(=O)c1cccc(-c2ccc(F)c3cc(Cc4cccc(S(C)(=O)=O)c4)sc23)c1 [Working Example 159, 3-[4-Fluoro-2-[3-(methylsulfonyl)benzyl]-1-benzothiophen-7-yl]-N-(2-methoxyethyl)benzamide] | – | 80% | –
O=C(NCCO)c1cccc(-c2cccn3c(=O)n(Cc4cccc(C(F)(F)F)c4)nc23)c1 [Working Example 99, N-(2-Hydroxyethyl)-3-[3-oxo-2-[3-(trifluoromethyl)benzyl]-2,3-dihydro[1,2,4]triazolo[4,3-a]pyridin-8-yl]benzamide] | – | 67% | –
O=C(NCCO)c1ccnc(-c2cccc3cc(Cc4cccc(C(F)(F)F)c4)sc23)c1 [Working Example 198, N-(2-Hydroxyethyl)-2-[2-[3-(trifluoromethyl)benzyl]-1-benzothiophen-7-yl]pyridine-4-carboxamide] | – | 88% | 45%
O=C1NCc2c1cccc2-c1cccc2cc(Cc3cccc(C(F)(F)F)c3)sc12 [Working Example 326, 4-[2-[3-(Trifluoromethyl)benzyl]-1-benzothiophen-7-yl]-2,3-dihydro-1H-isoindole-1-one] | – | 92% | –
COCCNC(=O)c1cccc(-c2cccc3cc(Cc4cc(F)cc(Cl)c4)sc23)c1 [Working Example 179, 3-[2-(3-Chloro-5-fluorobenzyl)-1-benzothiophen-7-yl]-N-(2-methoxyethyl)benzamide] | – | 89% | –
O=C(NCCO)c1cccc(-c2cncc3cc(Cc4cccc(C(F)(F)F)c4)oc23)c1 [Working Example 413, N-(2-Hydroxyethyl)-3-[2-[3-(trifluoromethyl)benzyl]furo[3,2-c]pyridin-7-yl]benzamide] | – | 83% | –
N#CCCNC(=O)c1cccc(-c2cccc3nn(Cc4ccc(F)c(Cl)c4)cc23)c1 [Working Example 65, 3-[2-(3-Chloro-4-fluorobenzyl)-2H-indazol-4-yl]-N-(2-cyanoethyl)benzamide] | – | 75% | –
Cn1c(Cc2cccc(C(F)(F)F)c2)nc2c(-c3cccc(C(=O)NCCC#N)c3)cccc21 [Working Example 88, N-(2-Cyanoethyl)-3-[1-methyl-2-[3-(trifluoromethyl)benzyl]-1H-benzimidazol-4-yl]benzamide] | – | 59% | 37%
NC(=O)c1cccc(-c2cccc3cc(COc4cccc(C(F)(F)F)c4)sc23)c1 [Working Example 184, 3-(2-[[3-(Trifluoromethyl)phenoxy]methyl]-1-benzothiophen-7-yl]benzamide] | – | 82% | –
O=C(NCCO)c1cccc(-c2ccnc3cc(Cc4cccc(C(F)(F)F)c4)sc23)c1 [Working Example 265, N-(2-hydroxyethyl)-3-[2-[3-(trifluoromethyl)benzyl]thieno[3,2-b]pyridin-7-yl]benzamide] | – | 93% | –
NC(=O)CNC(=O)c1cccc(-c2cccc3cc(Cc4ccc(F)c(Cl)c4)sc23)c1 [Working Example 174, N-(2-Amino-2-oxoethyl)-3-[2-(3-chloro-4-fluorobenzyl)-1-benzothiophen-7-yl]benzamide] | – | 90% | –
N#CCCNC(=O)c1cccc(-c2nccc3oc(Cc4cccc(C(F)(F)F)c4)cc23)c1 [Working Example 23, N-(2-Cyanoethyl)-3-[2-[3-(trifluoromethyl)benzyl]furo[3,2-c]pyridin-4-yl]benzamide] | – | 75% | –
NC(=O)CNC(=O)c1cccc(-c2ccc(F)c3cc(Cc4cccc(C(F)(F)F)c4)sc23)c1 [Working Example 230, N-(2-Amino-2-oxoethyl)-3-[4-fluoro-2-[3-(trifluoromethyl)benzyl]-1-benzothiophen-7-yl]benzamide] | – | 85% | 58%
Cc1c(Cc2cccc(C(F)(F)F)c2)sc2c(-c3cccc(C(=O)NCCO)c3)cccc12 [Working Example 191, N-(2-Hydroxyethyl)-3-[3-methyl-2-[3-(trifluoromethyl)benzyl]-1-benzothiophen-7-yl]benzamide] | – | 94% | 65%
NC(=O)CNC(=O)c1cccc(-c2cccc3sc(Cc4cccc(C(F)(F)F)c4)cc23)c1 [Working Example 165, N-(2-Amino-2-oxoethyl)-3-[2-[3-(trifluoromethyl)benzyl]-1-benzothiophen-4-yl]benzamide] | – | 108% | –
N#CCCNC(=O)c1ccnc(-c2cccc3oc(Cc4cccc(C(F)(F)F)c4)cc23)c1 [Working Example 21, N-(2-Cyanoethyl)-2-[2-[3-(trifluoromethyl)benzyl]-1-benzofuran-4-yl]isonicotinamide] | – | 74% | –
O=C(NCCO)c1cc(F)cc(-c2ccc(F)c3cc(Cc4cccc(C(F)(F)F)c4)sc23)c1 [Working Example 271, 3-Fluoro-5-[4-fluoro-2-[3-(trifluoromethyl)benzyl]-1-benzothiophen-7-yl]-N-(2-hydroxyethyl)benzamide] | – | 94% | –
NC(=O)CNC(=O)c1cncc(-c2cccc3cc(Cc4cc(F)cc(Cl)c4)sc23)c1 [Working Example 221, N-(2-Amino-2-oxoethyl)-5-[2-(3-chloro-5-fluorobenzyl)-1-benzothiophen-7-yl]pyridine-3-carboxamide] | – | 81% | –
NC(=O)CNC(=O)c1cccc(-c2cccc3c(F)c(Cc4cccc(C(F)(F)F)c4)sc23)c1 [Working Example 405, N-(2-Amino-2-oxoethyl)-3-[3-fluoro-2-[3-(trifluoromethyl)benzyl]-1-benzothiophen-7-yl]benzamide] | – | 113% | –
O=C(NCCO)c1cccc(-c2cccc3cc(Cc4cc(F)cc(Cl)c4)sc23)n1 [Working Example 222, 6-[2-(3-Chloro-5-fluorobenzyl)-1-benzothiophen-7-yl]-N-(2-hydroxyethyl)pyridine-2-carboxamide] | – | 62% | –
CC(C)n1cc(Cc2cc3cccc(-c4cccc(C(=O)NCCO)c4)c3s2)ccc1=O [Working Example 292, N-(2-Hydroxyethyl)-3-[2-[[1-(1-methylethyl)-6-oxo-1,6-dihydropyridin-3-yl]methyl]-1-benzothiophen-7-yl]benzamide] | – | 61% | –
NC(=O)CNC(=O)c1cccc(-c2cccc3sc(Cc4cccc(C(F)(F)F)c4)nc23)c1 [Working Example 252, N-(2-Amino-2-oxoethyl)-3-[2-[3-(trifluoromethyl)benzyl]-1,3-benzothiazol-4-yl]benzamide] | – | 80% | –
CC(C)OCCNC(=O)c1cccc(-c2cccc3cc(Cc4cc(F)cc(Cl)c4)sc23)c1 [Working Example 360, 3-[2-(3-Chloro-5-fluorobenzyl)-1-benzothiophen-7-yl]-N-[2-(1-methylethoxy)ethyl]benzamide] | – | 79% | 41%
O=C(NCCO)c1cccc(-c2cccc3oc(Cc4cccc(C(F)(F)F)c4)cc23)c1 [Working Example 7, N-(2-Hydroxyethyl)-3-[2-[3-(trifluoromethyl)benzyl]-1-benzofuran-4-yl]benzamide] | – | 82% | 89%
